The values below come from PMC7355430, “Imunofan—RDKVYR Peptide—Stimulates Skin Cell Proliferation and Promotes Tissue Repair” (Molecules, 2020).

Peptide text beside a SMILES is read from it.

The test system of data set [1] is primary cortical neural cultures. The data set can be described thus: Neural viability, CellTiterBlue assay. The data set is classed as cell-based, Wistar rat. The conditions noted are these: 1, 10, 100, 200 µM, 20 h, 37 °C; CellTiterBlue (Figure S6). Here is the method:
Neural viability assessments. Primary cortical neural cultures were obtained from E18.5 Wistar rat embryos. For this purpose, the rat was euthanized in a CO2 chamber. The cortex tissue was immediately excised from the brain, moved to a HBSS medium (diluted 10 × and supplemented with a penicilin/streptomycin mixture), and washed precisely. Afterwards, the tissue was trypsinized for 10 min at 37 °C, and homogenized gently. […] Neural viability was quantitatively examined by CellTiterBlue® (CTB) assay (Promega, G8080) after 20-hour long incubation of the cells at 37 °C in the CO2. […] Fluorescence intensity of the CTB reagent is measured spectrofluorymetrically (560ex/590em) and is proportional to the number of viable cells. No insult sample referred as a 100% viability control and the data from the insulted cells was quantified and presented relatively as mean ± SD. The data was analyzed by a Mann-Whitney test with p-value < 0.05 values considered statistically significant. […]
Influence of Imunofan on neural viability. Influence of Imunofan on neural viability was assessed by exposing the cells to different peptide concentrations (1, 10, 100, 200 µM) for 20 h at 37 °C in a 5% CO2 chamber. […]

Another data set relates to 46BR.1N fibroblasts. The data set can be described thus: XTT proliferation assay. The data set is classed as cell-based, human. Conditions: 48 h, 0.1–100 µg/mL, serum-free DMEM, n=16. As for the experimental part:
(§1) XTT assay, which is widely used in the measurement of the effect of bioactive compounds (e.g., cytokines, growth factors, and peptides) on cell proliferation was used for the evaluation of IM effect on skin cells and ASCs proliferation. Cells were seeded at a density of 5000 cells per well into 96-well plates (BD, cat.no. 353872), in a medium supplemented with 10% of FBS, which after 24 h was exchanged for a serum-free DMEM medium containing appropriate concentrations of the IM peptide. IM solutions used in the experiments were prepared with double distilled water under sterile conditions. The cells were incubated with the peptide for 48 h or 72 h, then XTT reagent was added and the plates were incubated at 37 °C for 4 h in the presence of 5% CO2, following manufacturer’s instructions (Sigma-Aldrich, St. Louis, MO, USA). Plates were then read using a standard plate reader at OD 490 nm. Cell proliferation was normalized with respect to an untreated control (100%).

Another data set deals with ASCs. The data set can be described thus: XTT proliferation assay. The format is cell-based, human. Conditions: 48 h, 1.0 and 10 µg/mL, serum-free DMEM, n=16. As for the experimental part: as §1
The test system of a further data set is HaCaT keratinocytes. Description: XTT proliferation assay. The format is cell-based, human. Here is the method:
as §1

Data set [2] deals with primary fibroblast cell cultures. Description: Transcript levels by qPCR. The data set is classed as cell-based, human. Conditions: 0.1 µg/mL, 48 h, 2^−ΔCt relative to Actb and Tbp (Figure 5). As for the experimental part:
Cell stimulation was performed as previously described. Primary fibroblasts after the third passage and ASCs after the second passage were cultured in appropriate DMEM medium supplemented with 10% FBS for 24 h. Then, the medium was changed for DMEM with 5% FBS and 24-h incubation was performed. After another medium change for serum-free, cells were stimulated with IM peptide (0.1 µg/mL) for 48 h. Cell cultures deprived of FBS for 48 h were used as a control. After stimulation, the cells were trypsinized, collected, and centrifuged, and the pellet was kept frozen (−80 °C) for transcriptome analysis and transcript level analysis.
RNA was extracted using an RNeasy Mini kit (Qiagen, Cat. No. 74104, Hilden, Germany). RNA quality and concentrations were examined with a NanoDrop 2000 spectrophotometer. cDNA synthesis was performed in a reaction mixture containing 200 ng of RNA, 100 pmoles of oligo dT20, 4 µl of 5× reaction buffer (250 mM Tris-HCl, 375 mM KCl, 15 mM MgCl2, and 50 mM DTT), and 200 units of Maxima Reverse Transcriptase (ThermoScientific Bio. Cat. No. EP0742, Waltham, MA USA), at a final volume of 20 µl. PCR reactions were carried out on a LightCycler LC96 device (Roche, Basel, Switzerland), at a final volume of 10 µl containing 5 µl of FastStart Essential DNA Green Master (Roche, Cat. No. 06402712001, Basel, Switzerland), 1 µl of cDNA, and 0.25 µl each of forward and reverse primer (10 µM). The primer sequences are listed in Supplementary Table S4. The transcript levels were determined using the 2^−ΔCt method relative to Actb and Tbp.

For the next data set, the system named is patients. Details: method as in PMID 18475748. Conditions: subcutaneous injection in patients, response to diphtheria toxoid vaccination; cited from earlier work.

For `CC(C)[C@H](NC(=O)[C@H](CCCCN)NC(=O)[C@H](CC(=O)O)NC(=O)[C@@H](N)CCCNC(=N)N)C(=O)N[C@@H](Cc1ccc(O)cc1)C(=O)N[C@@H](CCCNC(=N)N)C(=O)O` [IM, H-Arg-Asp-Lys-Val-Tyr-Arg-OH] (H-RDKVYR-OH), the “toxicity to primary neural cells (viability)” value in data set [1] is given as “not toxic”. Also, the “increase in proliferation compared to the control” value in the data set with 46BR.1N fibroblasts is on record as 20–40%. The compound also came in with an increase in proliferation in the data set on ASCs of 10%. Also, the “increase in cell proliferation” value in the data set on HaCaT keratinocytes (48 h, 0.1 and 1 µg/mL, serum-free DMEM, XTT, n=16) is listed as 20–50%. The “increase in proliferation of keratinocytes (abstract)” value in the data set on HaCaT keratinocytes (as summarised in the abstract, p < 0.05) is 20–50%. Moreover, the “transcriptional response of POU5F1” value in data set [2] (fibroblasts from all three donors) was “very strong induction”. In data set [2] (primary fibroblasts), the “transcriptional response of TET1” value was “high activation” and the “transcriptional response of TET3” value was “high activation”. Moreover, the “levels of interleukin-6 (IL-6) and tumor necrosis factor (TNF)” value in the data set on patients is listed as “decreasing levels”.
